The values below come from ChEMBL document CHEMBL5550090, “Synthesis and biological evaluation of 1H-pyrrolo[3,2-g]isoquinolines” (Bioorg Med Chem, 2024).

The structures appear in SMILES notation.

Experiment [1] deals with T1, Serine/threonine-protein kinase haspin (Homo sapiens, UniProt Q8TF76).
T1 sequence (Q8TF76 whole entry): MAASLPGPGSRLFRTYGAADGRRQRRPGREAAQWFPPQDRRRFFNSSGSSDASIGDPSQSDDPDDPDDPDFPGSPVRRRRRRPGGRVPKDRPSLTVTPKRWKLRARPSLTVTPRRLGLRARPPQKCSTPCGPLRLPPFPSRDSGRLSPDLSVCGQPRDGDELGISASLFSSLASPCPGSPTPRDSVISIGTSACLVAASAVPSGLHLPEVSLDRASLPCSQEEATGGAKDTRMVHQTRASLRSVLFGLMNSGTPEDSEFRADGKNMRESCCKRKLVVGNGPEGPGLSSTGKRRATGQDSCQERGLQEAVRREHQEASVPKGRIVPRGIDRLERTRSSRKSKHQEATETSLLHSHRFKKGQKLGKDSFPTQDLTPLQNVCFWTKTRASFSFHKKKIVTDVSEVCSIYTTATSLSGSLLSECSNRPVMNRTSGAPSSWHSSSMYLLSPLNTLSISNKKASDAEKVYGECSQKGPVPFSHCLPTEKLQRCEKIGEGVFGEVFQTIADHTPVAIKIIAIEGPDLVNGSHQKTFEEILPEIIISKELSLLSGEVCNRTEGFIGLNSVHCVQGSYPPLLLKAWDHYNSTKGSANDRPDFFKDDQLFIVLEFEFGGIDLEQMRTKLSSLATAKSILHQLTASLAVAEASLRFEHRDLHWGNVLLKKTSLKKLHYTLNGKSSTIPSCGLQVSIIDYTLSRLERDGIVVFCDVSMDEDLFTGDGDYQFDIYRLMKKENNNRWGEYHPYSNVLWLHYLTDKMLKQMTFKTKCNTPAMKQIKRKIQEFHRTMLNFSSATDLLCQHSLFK
The experiment in a line: Inhibition of recombinant human Haspin kinase domain (470 to 798 residues) expressed in bacteria using histone H3 (1 to 21) peptide as substrate incubated for 30 mins in presence of ATP by ADP-Glo kinase assay. Background: In ADP-Glo the light output rises with the ADP produced.

The target in experiment [2] is Dual specificity protein kinase CLK1 (Mus musculus) (UniProt P22518). As to the kind of experiment: Inhibition of recombinant mouse CLK1 expressed in bacteria assessed as enzyme residual activity using GRSRSRSRSRSR as substrate at 10 uM incubated for 30 mins in presence of ATP by ADP-Glo kinase assay.
Experiment [3] shares this target. The experiment in a line: Inhibition of recombinant mouse CLK1 expressed in bacteria assessed as enzyme residual activity using GRSRSRSRSRSR as substrate at 1 uM incubated for 30 mins in presence of ATP by ADP-Glo kinase assay.
Experiment [4] has as its target Dual specificity protein kinase CLK1 (Mus musculus, UniProt P22518). As to the kind of experiment: Inhibition of recombinant mouse CLK1 expressed in bacteria using GRSRSRSRSRSR as substrate incubated for 30 mins in presence of ATP by ADP-Glo kinase assay.
Experiment [5] addresses Dual specificity tyrosine-phosphorylation-regulated kinase 1A (Rattus norvegicus) (UniProt Q63470). As to the kind of experiment: Inhibition of recombinant rat DYRK1A kinase domain (1 to 499 residues) expressed in bacteria assessed as enzyme residual activity using KKISGRLSPIMTEQ as substrate at 10 uM incubated for 30 mins in presence of ATP by ADP-Glo kinase assay.
The target is the same in experiment [6]. As to the kind of experiment: Inhibition of recombinant rat DYRK1A kinase domain (1 to 499 residues) expressed in bacteria assessed as enzyme residual activity using KKISGRLSPIMTEQ as substrate at 1 uM incubated for 30 mins in presence of ATP by ADP-Glo kinase assay.
For experiment [7], the target named is Dual specificity tyrosine-phosphorylation-regulated kinase 1A (Rattus norvegicus, UniProt Q63470). The experiment in a line: Inhibition of recombinant rat DYRK1A kinase domain (1 to 499 residues) expressed in bacteria using KKISGRLSPIMTEQ as substrate incubated for 30 mins in presence of ATP by ADP-Glo kinase assay.
The target in experiment [8] is T2, CDK9/cyclin T1 (Homo sapiens) (UniProt O60563+P50750). The experiment in a line: Inhibition of human recombinant CDK9/cyclin T expressed in baculovirus-infected Sf9 cells assessed as enzyme residual activity using YSPTSPSYSPTSPSYSPTSPSKKKK as substrate at 10 uM incubated for 30 mins in presence of ATP by ADP-Glo kinase assay.
In experiment [9] the target is T2, CDK9/cyclin T1 (Homo sapiens). As to the kind of experiment: Inhibition of human recombinant CDK9/cyclin T expressed in baculovirus-infected Sf9 cells assessed as enzyme residual activity using YSPTSPSYSPTSPSYSPTSPSKKKK as substrate at 1 uM incubated for 30 mins in presence of ATP by ADP-Glo kinase assay.
Experiment [10] has as its target Glycogen synthase kinase-3 beta (Homo sapiens) (UniProt P49841). As to the kind of experiment: Inhibition of human recombinant GSK-3 beta expressed in baculovirus-infected Sf9 cells assessed as enzyme residual activity using YRRAAVPPSPSLSRHSSPHQSpEDEEE as substrate at 10 uM incubated for 30 mins in presence of ATP by ADP-Glo kinase assay.
The target is the same in experiment [11]. As to the kind of experiment: Inhibition of human recombinant GSK-3 beta expressed in baculovirus-infected Sf9 cells assessed as enzyme residual activity using YRRAAVPPSPSLSRHSSPHQSpEDEEE as substrate at 1 uM incubated for 30 mins in presence of ATP by ADP-Glo kinase assay.
Experiment [12] concerns the target Casein kinase I isoform epsilon (Homo sapiens) (UniProt P49674). As to the kind of experiment: Inhibition of human recombinant CK1 epsilon expressed in baculovirus-infected Sf9 cells assessed as enzyme residual activity using RRKHAAIGSpAYSITA as substrate at 10 uM incubated for 30 mins in presence of ATP by ADP-Glo kinase assay.
For experiment [13] the target is unchanged. As to the kind of experiment: Inhibition of human recombinant CK1 epsilon expressed in baculovirus-infected Sf9 cells assessed as enzyme residual activity using RRKHAAIGSpAYSITA as substrate at 1 uM incubated for 30 mins in presence of ATP by ADP-Glo kinase assay.
Experiment [14] concerns the target T3, Cyclin-dependent kinase 5/CDK5 activator 1 (Homo sapiens) (UniProt Q00535+Q15078). The experiment in a line: Inhibition of human recombinant CDK5/p25 expressed in bacteria assessed as enzyme residual activity using histone H1 as substrate at 10 uM incubated for 30 mins in presence of ATP by ADP-Glo kinase assay.
Experiment [15] concerns the target T3, Cyclin-dependent kinase 5/CDK5 activator 1 (Homo sapiens). The experiment in a line: Inhibition of human recombinant CDK5/p25 expressed in bacteria assessed as enzyme residual activity using histone H1 as substrate at 1 uM incubated for 30 mins in presence of ATP by ADP-Glo kinase assay.
Experiment [16] concerns the target T4, Serine/threonine-protein kinase pim-1 (Homo sapiens, UniProt P11309). As to the kind of experiment: Inhibition of human recombinant PIM-1 expressed in bacteria assessed as enzyme residual activity using histone H1 as substrate at 10 uM incubated for 30 mins in presence of ATP by ADP-Glo kinase assay.
Target sequence in this assay (P11309 whole entry, looked up): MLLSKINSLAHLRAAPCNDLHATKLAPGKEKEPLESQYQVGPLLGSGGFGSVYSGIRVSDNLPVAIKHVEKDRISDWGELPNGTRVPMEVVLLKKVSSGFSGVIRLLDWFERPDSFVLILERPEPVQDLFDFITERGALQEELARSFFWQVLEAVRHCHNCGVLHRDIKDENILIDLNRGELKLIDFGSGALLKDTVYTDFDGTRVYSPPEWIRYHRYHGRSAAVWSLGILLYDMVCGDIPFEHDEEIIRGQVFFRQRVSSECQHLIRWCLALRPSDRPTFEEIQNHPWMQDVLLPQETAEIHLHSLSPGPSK
For experiment [17], the target named is T4, Serine/threonine-protein kinase pim-1. As to the kind of experiment: Inhibition of human recombinant PIM-1 expressed in bacteria assessed as enzyme residual activity using histone H1 as substrate at 1 uM incubated for 30 mins in presence of ATP by ADP-Glo kinase assay.
Target sequence in this assay (P11309 whole entry, looked up): as above
Experiment [18] in a line: Selectivity index, ratio of IC50 for recombinant mouse CLK1 expressed in bacteria to IC50 for recombinant human Haspin kinase domain (470 to 798 residues) expressed in bacteria.
Experiment [19] concerns the target CDK9/cyclin T1 (Homo sapiens, UniProt P50750). As to the kind of experiment: Inhibition of human recombinant CDK9/cyclin T expressed in baculovirus-infected Sf9 cells using YSPTSPSYSPTSPSYSPTSPSKKKK as substrate incubated for 30 mins in presence of ATP by ADP-Glo kinase assay.
The target of experiment [20] is T4, Serine/threonine-protein kinase pim-1. As to the kind of experiment: Inhibition of human recombinant PIM-1 expressed in bacteria using histone H1 as substrate incubated for 30 mins in presence of ATP by ADP-Glo kinase assay.
Target sequence in this assay (P11309 whole entry): as the sequence (P11309 whole entry, looked up) above
Experiment [21] deals with TERT-RPE1. The experiment in a line: cells. Particulars: Homo sapiens, RPE-1, 48 h.
Description: Cytotoxicity against human TERT-RPE1 cells assessed as reduction in cell viability incubated for 48 hrs by MTS assay
Experiment [22] deals with HBL-100. As to the kind of experiment: cells. To be noted: Homo sapiens, HBL-100, 48 h.
Description: Antiproliferative activity against human HBL-100 cells assessed as reduction in cell viability incubated for 48 hrs by MTS assay
Experiment [23] has as its system HCT-116. The experiment in a line: cells. To be noted: Homo sapiens, HCT-116, 48 h.
Description: Antiproliferative activity against human HCT-116 cells assessed as reduction in cell viability incubated for 48 hrs by MTS assay
The test system of experiment [24] is SH-SY5Y. As to the kind of experiment: cells. To be noted: Homo sapiens, 48 h.
Description: Antiproliferative activity against human SH-SY5Y cells assessed as reduction in cell viability incubated for 48 hrs by MTS assay
Experiment [25] deals with U2OS. As to the kind of experiment: cells. Particulars: Homo sapiens, 48 h.
Description: Antiproliferative activity against human U2OS cells assessed as reduction in cell viability incubated for 48 hrs by MTS assay

Chain of Glycogen synthase kinase-3 beta (Homo sapiens) (P49841 whole entry, looked up): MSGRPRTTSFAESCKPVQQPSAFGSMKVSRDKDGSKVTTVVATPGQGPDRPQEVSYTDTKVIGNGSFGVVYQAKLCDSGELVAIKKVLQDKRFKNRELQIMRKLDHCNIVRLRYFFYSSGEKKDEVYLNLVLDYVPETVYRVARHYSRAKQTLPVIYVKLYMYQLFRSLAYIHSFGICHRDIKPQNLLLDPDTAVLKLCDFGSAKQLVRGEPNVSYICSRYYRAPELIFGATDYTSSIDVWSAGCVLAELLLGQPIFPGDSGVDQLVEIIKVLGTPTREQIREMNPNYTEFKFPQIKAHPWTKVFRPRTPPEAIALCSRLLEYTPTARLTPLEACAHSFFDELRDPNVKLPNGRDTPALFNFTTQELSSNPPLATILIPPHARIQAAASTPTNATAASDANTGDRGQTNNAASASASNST
Chain of Dual specificity protein kinase CLK1 (Mus musculus) (P22518 whole entry, looked up): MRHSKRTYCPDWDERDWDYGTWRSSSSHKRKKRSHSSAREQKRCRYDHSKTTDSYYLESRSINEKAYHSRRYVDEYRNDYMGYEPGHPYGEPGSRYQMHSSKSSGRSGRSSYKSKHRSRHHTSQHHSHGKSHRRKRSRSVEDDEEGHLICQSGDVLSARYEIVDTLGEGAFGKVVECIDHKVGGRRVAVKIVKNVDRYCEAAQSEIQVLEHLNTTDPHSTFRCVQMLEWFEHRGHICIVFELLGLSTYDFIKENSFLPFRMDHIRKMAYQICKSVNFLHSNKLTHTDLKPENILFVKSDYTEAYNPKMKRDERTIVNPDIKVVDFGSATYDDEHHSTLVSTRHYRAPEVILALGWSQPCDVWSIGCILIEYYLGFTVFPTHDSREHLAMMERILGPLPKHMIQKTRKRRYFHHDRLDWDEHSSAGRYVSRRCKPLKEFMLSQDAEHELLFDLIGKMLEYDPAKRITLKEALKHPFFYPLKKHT
T3 sequence (Q00535 whole entry): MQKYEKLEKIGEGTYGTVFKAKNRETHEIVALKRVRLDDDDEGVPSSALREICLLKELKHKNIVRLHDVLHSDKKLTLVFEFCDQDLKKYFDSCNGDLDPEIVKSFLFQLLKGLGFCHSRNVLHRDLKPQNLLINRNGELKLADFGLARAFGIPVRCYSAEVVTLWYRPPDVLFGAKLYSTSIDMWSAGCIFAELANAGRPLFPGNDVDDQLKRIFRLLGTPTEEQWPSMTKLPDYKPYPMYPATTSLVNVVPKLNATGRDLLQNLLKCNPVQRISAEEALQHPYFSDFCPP
T3 sequence (Q15078 99-307 partner limits assumed): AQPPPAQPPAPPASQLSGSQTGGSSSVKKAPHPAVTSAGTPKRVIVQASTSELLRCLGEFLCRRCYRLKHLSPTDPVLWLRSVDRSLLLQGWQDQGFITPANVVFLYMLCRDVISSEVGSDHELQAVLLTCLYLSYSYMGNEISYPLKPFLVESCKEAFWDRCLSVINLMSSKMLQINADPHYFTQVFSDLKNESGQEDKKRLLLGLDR
Chain of Casein kinase I isoform epsilon (Homo sapiens) (P49674 whole entry, looked up, canonical isoform): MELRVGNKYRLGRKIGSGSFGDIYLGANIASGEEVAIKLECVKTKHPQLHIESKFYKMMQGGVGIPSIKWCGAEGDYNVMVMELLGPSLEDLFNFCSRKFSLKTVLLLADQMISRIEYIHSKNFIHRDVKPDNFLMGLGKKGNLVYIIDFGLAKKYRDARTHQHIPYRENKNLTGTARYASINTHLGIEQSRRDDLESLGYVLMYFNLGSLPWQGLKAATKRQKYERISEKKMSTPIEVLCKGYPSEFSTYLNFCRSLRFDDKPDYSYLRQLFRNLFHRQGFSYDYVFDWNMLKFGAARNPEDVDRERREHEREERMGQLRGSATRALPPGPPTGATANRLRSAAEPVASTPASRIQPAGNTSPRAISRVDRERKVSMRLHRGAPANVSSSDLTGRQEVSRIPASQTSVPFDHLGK
Chain of Dual specificity protein kinase CLK1 (P22518 whole entry, the tested form may be a part): as the sequence (P22518 whole entry, looked up) above
Chain of CDK9/cyclin T1 (O60563 whole entry): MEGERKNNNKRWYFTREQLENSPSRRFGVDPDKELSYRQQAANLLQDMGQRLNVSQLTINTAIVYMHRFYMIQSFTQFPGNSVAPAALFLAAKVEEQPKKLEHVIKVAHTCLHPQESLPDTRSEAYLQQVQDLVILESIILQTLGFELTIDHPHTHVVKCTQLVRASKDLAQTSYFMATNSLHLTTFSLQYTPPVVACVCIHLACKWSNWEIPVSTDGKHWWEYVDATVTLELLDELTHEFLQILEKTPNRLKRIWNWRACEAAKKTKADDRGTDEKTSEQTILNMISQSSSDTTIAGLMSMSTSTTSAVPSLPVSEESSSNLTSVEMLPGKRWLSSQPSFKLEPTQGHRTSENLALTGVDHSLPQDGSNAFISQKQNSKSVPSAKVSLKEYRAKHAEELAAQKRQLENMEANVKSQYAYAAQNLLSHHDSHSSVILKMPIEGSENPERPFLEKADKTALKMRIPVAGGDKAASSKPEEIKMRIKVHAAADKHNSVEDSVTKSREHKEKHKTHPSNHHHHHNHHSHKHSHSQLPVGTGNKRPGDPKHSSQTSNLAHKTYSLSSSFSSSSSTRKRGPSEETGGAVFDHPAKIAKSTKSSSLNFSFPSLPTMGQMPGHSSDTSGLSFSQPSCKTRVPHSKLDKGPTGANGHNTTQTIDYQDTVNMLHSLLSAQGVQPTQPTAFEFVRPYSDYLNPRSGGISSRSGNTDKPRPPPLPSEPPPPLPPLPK
Chain of CDK9/cyclin T1 (P50750 whole entry): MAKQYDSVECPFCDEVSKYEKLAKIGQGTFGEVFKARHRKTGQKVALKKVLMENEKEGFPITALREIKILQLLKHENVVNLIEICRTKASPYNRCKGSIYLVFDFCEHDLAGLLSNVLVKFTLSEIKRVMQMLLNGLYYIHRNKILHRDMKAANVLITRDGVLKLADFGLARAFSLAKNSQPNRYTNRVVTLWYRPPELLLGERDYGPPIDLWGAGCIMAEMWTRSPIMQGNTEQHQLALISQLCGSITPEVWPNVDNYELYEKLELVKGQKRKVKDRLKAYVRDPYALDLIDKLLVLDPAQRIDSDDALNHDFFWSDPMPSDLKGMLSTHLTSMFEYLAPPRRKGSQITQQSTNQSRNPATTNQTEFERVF

`CC(=O)c1c[nH]c2cc3cnccc3cc12`: the IC50 (in general, the concentration that inhibits the measured activity by half) is 157 nM in [1], 265 nM in experiment [4] and 860 nM in experiment [7]. For the same molecule, the Activity in experiment [2] was found to be 10%; in experiment [3], 21%; in experiment [5], 0%; in experiment [6], 25%; in experiment [8] it was 20%; in experiment [9] it was 34%. For the same molecule, the Activity was determined as 27% in experiment [10]; 69% in [11]; 62% in experiment [12]; 98% in experiment [13]; 13% in [14]; 31% in [15]. Also, the Activity is 27% in experiment [16] and 80% in [17]. The Ratio IC50 in [18] is 1.7.
Regarding `c1cc2cc3c(-c4cncnc4)c[nH]c3cc2cn1`, the IC50 in [1] stood at 249 nM. The Activity worked out at 14% in experiment [2]; 54% in [3]; 20% in experiment [5]; 51% in [6]; 43% in experiment [8]; 79% in experiment [9]. For the same molecule, the Activity was determined as 59% in [10]; 68% in [11]; 43% in [12]; 81% in experiment [13]; 72% in experiment [14]; 100% in [15]. In addition, the Activity is 33% in [16] and 63% in experiment [17].
With `Brc1c[nH]c2cc3cnccc3cc12`, the IC50 in experiment [1] was determined as 150 nM; in experiment [7] it was 916 nM; in experiment [19], 999 nM; in experiment [20], 804 nM. The Activity in [2] came out at 32%; in experiment [3], 72%; in experiment [5] it was 11%; in experiment [6], 36%; in [8], 27%; in [9], 39%. For the same molecule, the Activity in experiment [10] worked out at 62%; in [11], 89%; in experiment [12], 77%; in experiment [13] it was 100%; in experiment [14], 48%; in experiment [15] it was 100%. The Activity in experiment [16] stood at 24%; in [17] it was 48%. Besides, the EC50 in experiment [21], in experiment [22], in experiment [23], in [24] and in experiment [25] was more than 50000 nM in each case.
For `Cn1ccc2cc3ccncc3cc21`, the IC50 in [1] was approximately 1000 nM. Further, the Activity in experiment [2] stood at 58%; in experiment [3], 92%; in [5] it was 29%; in experiment [6], 67%; in [8], 60%; in [9] it was 89%. Moreover, the Activity in [10] came to 83%; in experiment [11], 100%; in [12], 85%; in experiment [13], 92%; in experiment [14], 38%; in [15], 53%. For the same molecule, the values for the Activity in experiment [16] and in [17] were 35% and 67%, respectively.
Take `Ic1c[nH]c2cc3cnccc3cc12`: the values for the IC50 in experiment [1], in [7] and in experiment [20] were 114 nM, 564 nM and 675 nM, respectively. Further, the Activity in experiment [2] came to 27%; in experiment [3], 69%; in [5], 16%; in experiment [6], 50%; in [8] it was 35%; in experiment [9], 62%. Further, the Activity came to 74% in [10]; 77% in experiment [11]; 27% in experiment [12]; 69% in [13]; 100% in experiment [14]; 23% in [16]. For the same molecule, the Activity in experiment [17] was 50%. The EC50 in experiment [21], in [22], in experiment [23], in [24] and in experiment [25] was more than 50000 nM throughout.
`c1ccc(-c2c[nH]c3cc4cnccc4cc23)cc1`: in experiment [1], the IC50 was 482 nM. Further, the Activity in [2] was 44%; in [3], 74%; in [5], 19%; in experiment [6], 53%; in [8], 63%; in experiment [9], 83%. For the same molecule, the Activity in [10] came out at 77%; in [11] it was 66%; in experiment [12], 88%; in experiment [13], 100%; in experiment [14] it was 73%; in experiment [15] it was 97%. The Activity in experiment [16] is 18%; in [17], 53%.
On to `ON=Cc1c[nH]c2cc3cnccc3cc12`, for which the IC50 in experiment [1] was 130 nM; in experiment [4], 139 nM; in experiment [7], 290 nM; in experiment [19], 222 nM. The Activity in experiment [3] worked out at 15%; in experiment [5], 1%; in experiment [6], 9%; in experiment [8] it was 2%; in [9], 13%; in experiment [10], 27%. Besides, the Activity stood at 80% in experiment [11]; 46% in experiment [12]; 89% in experiment [13]; 32% in experiment [14]; 51% in [15]; 11% in [16]. Further, in experiment [17], the Activity came out at 43%. Further, in experiment [18], the Ratio IC50 came to 1.1.
